Measured values taken from patent US8927063B2, “Compositions for the treatment of timber and other wood substrates” (TimTechChem International Limited, priority 2008, dated 2015).

Assays:
[1] = Example 3: solubility and formulation stability in ester solvents
Method: Further formulation tests were carried out to ascertain if the fungicide IPBC (iodo propyl butyl carbamate, CAS No 55406-53-6) was soluble in ester compounds of formula (I).

[2] = Example 2: solvent evaporation rate from treated wood pieces (daily re-weighing); settings: 17-22 °C, no external airflow
Method: The wood pieces were placed on plastic bearers allowing good access of air to all surfaces and situated in a dedicated room with no external airflow. Air temperatures in the room were mainly in the range 17-22° C.
The wood pieces were re-weighed daily to determine weight loss rates for the various solvents.

Compound: CC(C)(C)C(O)(CCc1ccc(Cl)cc1)Cn1cncn1 (stereo not drawn) [tebuconazole]
- solubilisation in the esters of the invention [1]: good solubilisation

Compound: CCOC(C)=O [ethyl ethanoate]
- % Solvent Remaining in Wood ([2]; After 24 h): 3.8%
- % Solvent Remaining in Wood ([2]; After 48 h): 0%
- % Solvent Remaining in Wood ([2]; After 72 h): 0%

Compound: N#Cc1c(Cl)c(Cl)c(Cl)c(C#N)c1Cl [chlorothalonil]
- solubility ([1]; in butyl ethanoate): less than 1%
- solubility ([1]; in propyl ethanoate): less than 1%

Compound: CCCCOC(C)=O [n-butyl ethanoate]
- % Solvent Remaining in Wood ([2]; After 24 h): 6.9%
- % Solvent Remaining in Wood ([2]; After 48 h): 3.1%
- % Solvent Remaining in Wood ([2]; After 72 h): 0.8%
